Tests used:
Rattus norvegicus = conditions: for LD50: acute, oral, mortality; for NOEL: chronic
Apis mellifera = conditions: acute; duration: 48 hours; oral; unspecified; mortality
Canidae = conditions: chronic; duration: 1 years; oral; Dog Other; organ weight
Anas platyrhynchos = conditions: acute; oral; unspecified; mortality
Colinus virginianus = conditions: for NOEC: reproduction developmental
Folsomia candida = conditions: chronic/long-term
Tagia sp. = conditions: acute; duration: 14 days; mortality
Pimephales promelas = conditions: chronic/long-term; duration: 359 days; mortality
Lepomis macrochirus = conditions: acute; duration: 96 hours; mortality
Mus musculus = conditions: acute; oral; mortality
Chrysoperla externa = test: LR50; higher = less toxic; conditions: not reported; mortality

SMILES | LD50 (Rattus norvegicus) [mg/kg-day] | LD50 (Apis mellifera) [µg/piece] | NOAEL (Canidae) [mg/kg-day] | LD50 (Anas platyrhynchos) [mg/kg] | NOEL (Rattus norvegicus; F) [mg/kg-day] | NOEL (Rattus norvegicus; M) [mg/kg-day] | LC50 (Colinus virginianus; acute, oral, diet, mortality) [mg/kg-day] | LD50 (Colinus virginianus; acute, oral, mortality) [mg/kg] | NOEC (Colinus virginianus) [mg/kg-day] | NOEC (Colinus virginianus; duration: 90 days) [mg/kg-day] | NOEC (Folsomia candida) [mg/kg] | LC50 (Tagia sp.) [mg/kg] | NOEC (Pimephales promelas) [mg/L] | LC50 (Lepomis macrochirus) [µg/mL] | LD50 (Mus musculus) [mg/kg-day] | LR50 (Chrysoperla externa) [g/ha]
NC(=O)c1c(F)cccc1F [Benzamide, 2,6-difluoro-] | 2060 | – | – | – | – | – | – | – | – | – | – | – | – | – | – | –
O=C(NC(=O)c1c(F)cccc1F)Nc1cc(Cl)c(OC(F)(F)C(F)C(F)(F)F)cc1Cl (configuration not stated) [Lufenuron] | > 2000 | > 197 | 1.5 | 2000 | 10.9 | 8.3 | 966 | 2000 | 19.7 | 20000 | 0.2 | > 1000 | 0.02 | > 29 | > 2000 | 0.4
